ChEMBL document CHEMBL1201862, “PubChem BioAssay data set” (2004)
Where “and” joins values, the source holds several entries; their conditions need not be identical. Identical values can stand only once. Counter-ions that a name gives are not always drawn.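 Dose response: 5 concentrations. Exposure: 48 h. Format: 96-well plates. Endpoint: linear interpolation; highest concentration if not reached. At the GI50, growth is halved.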 Calls of active or inactive are those of the source. Rule as the data show it: active = GI50 up to about 1.1 µM and inactive = higher.

Key:
Assay in all cases: inhibition of tumour cell growth, NCI panel, 48 h
MDA-MB-435 = tested on: MDA-MB-435
MCF7 = tested on: MCF7
SNB-19 = tested on: SNB-19
A549 = tested on: A549
OVCAR-8 = tested on: OVCAR-8
Malme-3M = tested on: Malme-3M
HT-29 = tested on: HT-29
OVCAR-5 = tested on: OVCAR-5
A498 = tested on: A498
HOP-92 = tested on: HOP-92
T47D = tested on: T47D
DU-145 = tested on: DU-145
U-251 = tested on: U-251
HL-60 = tested on: HL-60
MOLT-4 = tested on: MOLT-4
HOP-62 = tested on: HOP-62
SF-295 = tested on: SF-295
SF-268 = tested on: SF-268
NCI-H23 = tested on: NCI-H23
SW-620 = tested on: SW-620

Measured: GI50

CC1=C(O)C(=O)c2ccccc2C1=O
inactive: MDA-MB-435 52.6 µM | MCF7 67.6 µM | SNB-19 > 100 µM | A549 > 100 µM | OVCAR-8 > 100 µM | Malme-3M 9.02 µM | HT-29 56.1 µM | OVCAR-5 > 100 µM | A498 > 100 µM | HOP-92 > 100 µM | T47D > 100 µM | DU-145 64.9 µM | U-251 34 µM | HL-60 6.82 µM | MOLT-4 > 100 µM | HOP-62 > 100 µM | SF-295 49.4 µM | SF-268 94.6 µM | NCI-H23 12.3 µM | SW-620 84.3 µM

NCC1CCN(c2nc3ccccc3c3c2CCCC3)CC1
inactive: MDA-MB-435 2.41 µM | MCF7 4.86 µM | SNB-19 10.4 µM | A549 11.2 µM | OVCAR-8 17.2 µM | Malme-3M 13.2 µM | HT-29 2.42 µM | OVCAR-5 11.9 µM | A498 12.4 µM | HOP-92 9.04 µM | T47D 2.28 µM | DU-145 13.1 µM | U-251 5.35 µM | HL-60 2.84 µM | MOLT-4 3.59 µM | HOP-62 14.7 µM | SF-295 12.9 µM | SF-268 2.78 µM | NCI-H23 15.5 µM | SW-620 2.86 µM

O=[N+]([O-])c1ccc(N/N=C/CC(O)(C(F)(F)F)C(F)(F)F)c([N+](=O)[O-])c1
inactive: MDA-MB-435 4.13 µM | MCF7 3.78 µM | SNB-19 5.04 µM | A549 4.69 µM | OVCAR-8 4.23 µM | Malme-3M 4.97 µM | HT-29 4.38 µM | A498 3.78 µM | HOP-92 2.17 µM | T47D 3.21 µM | DU-145 3.1 µM | U-251 3.48 µM | HL-60 4.07 µM | MOLT-4 3.78 µM | HOP-62 4.17 µM | SF-295 3.58 µM | SF-268 4.26 µM | NCI-H23 2.77 µM | SW-620 7.33 µM

CCOC(=O)c1cn(CC)c2ccc3ccsc3c2c1=O
inactive: MDA-MB-435 > 100 µM | MCF7 > 100 µM | SNB-19 > 100 µM | A549 > 100 µM | OVCAR-8 > 100 µM | Malme-3M > 100 µM | HT-29 > 100 µM | OVCAR-5 > 100 µM | A498 > 100 µM | HOP-92 > 100 µM | T47D > 100 µM | DU-145 > 100 µM | U-251 5.46 µM | HL-60 > 100 µM | MOLT-4 > 100 µM | HOP-62 > 100 µM | SF-295 > 100 µM | SF-268 > 100 µM | NCI-H23 > 100 µM | SW-620 > 100 µM

COc1cc(OC)c2c(=O)c(OC)c(-c3ccc4c(c3)OCO4)oc2c1
inactive: MDA-MB-435 > 100 µM | MCF7 > 100 µM | SNB-19 22 µM | A549 > 100 µM | OVCAR-8 28.6 µM | Malme-3M > 100 µM | HT-29 > 100 µM | OVCAR-5 > 100 µM | A498 15.6 µM | T47D 23.1 µM | DU-145 48.5 µM | U-251 16.6 µM | HL-60 20.9 µM | MOLT-4 > 100 µM | HOP-62 23.5 µM | SF-295 22.2 µM | SF-268 20.7 µM | NCI-H23 23.2 µM | SW-620 > 100 µM

O=C(N/N=C(COc1ccc([N+](=O)[O-])cc1)\N=C\c1ccncc1)c1ccncc1
inactive: MDA-MB-435 > 100 µM | MCF7 > 100 µM | SNB-19 > 100 µM | A549 > 100 µM | OVCAR-8 60.1 µM | Malme-3M > 100 µM | HT-29 > 100 µM | OVCAR-5 > 100 µM | A498 > 100 µM | T47D > 100 µM | DU-145 > 100 µM | U-251 > 100 µM | HL-60 > 100 µM | MOLT-4 > 100 µM | HOP-62 > 100 µM | SF-295 > 100 µM | SF-268 > 100 µM | NCI-H23 > 100 µM | SW-620 > 100 µM

O=[N+]([O-])c1ccc2sc(/C=N/c3cnccn3)cc2c1
active: T47D 0.714 µM
inactive: MDA-MB-435 18.4 µM | MCF7 5.74 µM | SNB-19 65 µM | A549 64.9 µM | OVCAR-8 45.4 µM | Malme-3M 37 µM | HT-29 39.2 µM | OVCAR-5 36.4 µM | A498 27.4 µM | HOP-92 60.1 µM | DU-145 21.5 µM | U-251 20.9 µM | HL-60 14.2 µM | MOLT-4 10.7 µM | HOP-62 29.1 µM | SF-295 35.4 µM | SF-268 27.2 µM | NCI-H23 63 µM | SW-620 25 µM

NC(CNO)C(=O)O (stereo not given)
inactive: MDA-MB-435 > 100 µM | MCF7 > 100 µM | SNB-19 > 100 µM | A549 > 100 µM | OVCAR-8 > 100 µM | Malme-3M > 100 µM | HT-29 > 100 µM | OVCAR-5 > 100 µM | A498 > 100 µM | HOP-92 > 100 µM | T47D > 100 µM | DU-145 > 100 µM | U-251 > 100 µM | HL-60 6.79 µM | HOP-62 > 100 µM | SF-295 > 100 µM | SF-268 > 100 µM | NCI-H23 > 100 µM | SW-620 > 100 µM

O=C1c2cc(CCl)sc2C(=O)c2ccsc21
active: MDA-MB-435 0.0187 µM | MCF7 0.197 µM | SNB-19 0.225 µM | A549 0.199 µM | OVCAR-8 0.215 µM | Malme-3M 0.0387 µM | HOP-92 0.427 µM | T47D 0.241 µM | DU-145 0.191 µM | U-251 0.333 µM | HL-60 0.0559 µM | MOLT-4 0.179 µM | SF-295 0.0966 µM | SF-268 0.195 µM | NCI-H23 0.0618 µM | SW-620 0.195 µM
inactive: HT-29 1.16 µM | OVCAR-5 1.85 µM | A498 1.63 µM

CC(C)C1CC(CO)(CNc2cc(Cl)nc(N)n2)C1 (stereo not given)
active: T47D 0.805 µM
inactive: MDA-MB-435 46.1 µM | MCF7 15 µM | SNB-19 > 100 µM | A549 39.2 µM | OVCAR-8 88.9 µM | Malme-3M 39.2 µM | HT-29 > 100 µM | OVCAR-5 81.8 µM | A498 4.49 µM | HOP-92 45 µM | DU-145 > 100 µM | U-251 44 µM | HL-60 18.1 µM | MOLT-4 > 10 µM | HOP-62 > 100 µM | SF-295 6.22 µM | SF-268 5 µM | SW-620 > 100 µM

O=C(Nc1cc(C(=O)Nc2cccc(S(=O)(=O)O)c2)cc(C(=O)Nc2cccc(S(=O)(=O)O)c2)c1)c1cccc(C(=O)Nc2cc(C(=O)Nc3cccc(S(=O)(=O)O)c3)cc(C(=O)Nc3cccc(S(=O)(=O)O)c3)c2)c1
inactive: MDA-MB-435 > 100 µM | MCF7 > 100 µM | A549 > 100 µM | OVCAR-8 > 100 µM | Malme-3M > 100 µM | HT-29 > 100 µM | OVCAR-5 > 100 µM | A498 84.7 µM | T47D > 100 µM | DU-145 > 100 µM | U-251 > 100 µM | HL-60 17.7 µM | MOLT-4 > 100 µM | HOP-62 > 100 µM | SF-295 > 100 µM | SF-268 > 100 µM | NCI-H23 > 100 µM | SW-620 > 100 µM

CN(c1cn(C2CC[C@@H](CO)O2)c(=O)[nH]c1=O)C1CCCCC1 (stereo not given in full)
inactive: MDA-MB-435 > 100 µM | MCF7 > 100 µM | SNB-19 > 100 µM | A549 > 100 µM | OVCAR-8 > 100 µM | Malme-3M > 100 µM | HT-29 > 100 µM | OVCAR-5 > 100 µM | A498 > 100 µM | HOP-92 > 100 µM | T47D > 100 µM | DU-145 > 100 µM | U-251 > 100 µM | HL-60 > 100 µM | MOLT-4 > 100 µM | HOP-62 > 100 µM | SF-295 > 100 µM | SF-268 > 100 µM | NCI-H23 > 100 µM | SW-620 > 100 µM

Cc1ncc([N+](=O)[O-])n1CCNS(=O)(=O)CCCn1ccnc1[N+](=O)[O-]
inactive: MDA-MB-435 > 100 µM | MCF7 > 100 µM | A549 > 100 µM | OVCAR-8 > 100 µM | Malme-3M > 100 µM | HT-29 > 100 µM | OVCAR-5 > 100 µM | A498 > 100 µM | HOP-92 > 100 µM | T47D > 100 µM | DU-145 > 100 µM | U-251 > 100 µM | HL-60 > 100 µM | MOLT-4 > 100 µM | HOP-62 > 100 µM | SF-295 > 100 µM | SF-268 > 100 µM | NCI-H23 > 100 µM | SW-620 > 100 µM

CN(C)CCCN1c2ccccc2Sc2ccc(C(F)(F)F)cc21 [TRIFLUPROMAZINE HYDROCHLORIDE]
inactive: MDA-MB-435 15.8 µM | MCF7 16.1 µM | SNB-19 16.6 µM and 15 µM | A549 17 µM and 16.9 µM | OVCAR-8 15.6 µM | Malme-3M 16.4 µM and 14.9 µM | HT-29 11.4 µM | OVCAR-5 17.1 µM | A498 16.6 µM | HOP-92 12.3 µM | T47D 14.6 µM | DU-145 17.2 µM | U-251 14.2 µM and 15.7 µM | HL-60 15.7 µM and 12.7 µM | MOLT-4 17.7 µM | SF-295 15.3 µM and 16.8 µM | SF-268 14 µM and 15 µM | NCI-H23 18.3 µM and 16.5 µM | SW-620 15.8 µM and 17.2 µM
